Assay: Stability of bulk samples on storage
Assay type: physicochemical
Details: three lots prepared by the method of Example 2, stored at 21-28°C in polyethylene containers; over a twelve month period; 525600 min
Procedure: The vancomycin diphosphate crystal form provided by this invention is a highly crystalline solid when hydrated that is stable over prolonged periods of time. The stability of bulk samples of vancomycin diphosphate was determined by preparing three lots of the compound by the method of Example 2. Samples of the three individual lots were stored at 21-28°C in polyethylene containers. Various physical parameters of each of the three lots were analyzed at zero, six, twelve and eighteen months.

vancomycin diphosphate
initial biological activity retained: more than 90%
